The source of these data is ChEMBL document CHEMBL4619743, “Synthetic approaches towards bedaquiline and its derivatives” (2020).

≈ marks a conversion by molar mass, not a printed value.

The test system of test [1] is Mycobacterium tuberculosis. The experiment in a line: Antimycobacterial activity against Mycobacterium tuberculosis. The format is functional.
In test [2] the test system is Mycobacterium tuberculosis. The test can be described thus: Antimycobacterial activity against Mycobacterium tuberculosis H37Rv. The format is functional.

For orientation: MIC90 means an inhibitory concentration at the 90% level, which refers to growth in some studies and to a panel of isolates in others. High values mean weaker potency, low ones greater potency. For the molecule `COc1cc2ccc(Br)cc2cc1[C@@H]1O[C@H]1CO`, the values for the MIC90 in test [1] and in test [2] were 0.13 to 0.5 µg/mL (≈ 0.42 to 1.62 µM) and 0.11 µg/mL (≈ 0.356 µM), respectively. In test [2], `COc1cc2ccc(Br)cc2cc1[C@@H](c1ccccc1)[C@@](O)(CCN(C)C)c1cccc(Br)c1` yielded an MIC90 of 0.01 µg/mL (≈ 0.0171 µM). On the same count and under the same terms, with `COc1cc2ccc(Br)cc2cc1[C@@H](c1ccccc1)[C@@](O)(CCN(C)C)c1cccc2ccccc12` the figure was 0.59 µg/mL (≈ 1.06 µM).
